This note sets out measurements from patent US10208037B2, “Toll-like receptor-7 and -8 modulatory 1H imidazoquinoline derived compounds” (The University of Kansas, priority 2011, dated 2019).

As usually defined, the IC50 is the concentration that inhibits the measured activity by half.

Holding throughout (assay type): cell-based
Assay [1] concerns TLR7 and TLR8-induced cytokine and chemokine release. Nature of the assay: Inhibition of TLR7- and TLR8-mediated cytokine and chemokine production in human PBMCs. Conditions: hPBMCs. On the procedure:
FIGS. 22A-[…] illustrate inhibition of TLR7-mediated (FIGS. 22A-22D) and TLR8-mediated (FIGS. 22E-[…]) proinflammatory cytokine production in human peripheral blood mononuclear cells by chloroquine or 47a. Proinflammatory cytokines were assayed by cytokine bead array methods after incubation of hPBMCs with graded concentrations of the test compound for 12 h in the presence of 10 μg/ml of either CL075 (TLR8 agonist) or gardiquimod (TLR7 agonist). FIGS. 23A-23D illustrate inhibition of TLR7-mediated (FIGS. 23A-23B) and TLR8-mediated (FIGS. 23C-3D) chemokine production in human peripheral blood mononuclear cells by chloroquine or 47a. Chemokines were assayed by cytokine bead array methods after incubation of hPBMCs with graded concentrations of the test compound for 12 h in the presence of 10 μg/ml of either CL075 (TLR8 agonist) or gardiquimod (TLR7 agonist). Aliquots (10^6 cells in 100 μL) of hPBMCs isolated from blood obtained from healthy human donors after informed consent by conventional Ficoll-Hypaque gradient centrifugation were stimulated for 12 h with graded concentrations of test compounds. The supernatant was isolated by centrifugation, diluted 1:20, and cytokines and chemokines were assayed in triplicate using analyte-specific cytokine/chemokine bead array assays as reported by us previously.^74

For assay [2], the target named is T1, TLR7 (Homo sapiens, UniProt Q9NYK1).
T1 construct: expressed in transfected cells; host or cells: HEK293 (HEK-Blue-7 cells)
T1 sequence (Q9NYK1 27-1049): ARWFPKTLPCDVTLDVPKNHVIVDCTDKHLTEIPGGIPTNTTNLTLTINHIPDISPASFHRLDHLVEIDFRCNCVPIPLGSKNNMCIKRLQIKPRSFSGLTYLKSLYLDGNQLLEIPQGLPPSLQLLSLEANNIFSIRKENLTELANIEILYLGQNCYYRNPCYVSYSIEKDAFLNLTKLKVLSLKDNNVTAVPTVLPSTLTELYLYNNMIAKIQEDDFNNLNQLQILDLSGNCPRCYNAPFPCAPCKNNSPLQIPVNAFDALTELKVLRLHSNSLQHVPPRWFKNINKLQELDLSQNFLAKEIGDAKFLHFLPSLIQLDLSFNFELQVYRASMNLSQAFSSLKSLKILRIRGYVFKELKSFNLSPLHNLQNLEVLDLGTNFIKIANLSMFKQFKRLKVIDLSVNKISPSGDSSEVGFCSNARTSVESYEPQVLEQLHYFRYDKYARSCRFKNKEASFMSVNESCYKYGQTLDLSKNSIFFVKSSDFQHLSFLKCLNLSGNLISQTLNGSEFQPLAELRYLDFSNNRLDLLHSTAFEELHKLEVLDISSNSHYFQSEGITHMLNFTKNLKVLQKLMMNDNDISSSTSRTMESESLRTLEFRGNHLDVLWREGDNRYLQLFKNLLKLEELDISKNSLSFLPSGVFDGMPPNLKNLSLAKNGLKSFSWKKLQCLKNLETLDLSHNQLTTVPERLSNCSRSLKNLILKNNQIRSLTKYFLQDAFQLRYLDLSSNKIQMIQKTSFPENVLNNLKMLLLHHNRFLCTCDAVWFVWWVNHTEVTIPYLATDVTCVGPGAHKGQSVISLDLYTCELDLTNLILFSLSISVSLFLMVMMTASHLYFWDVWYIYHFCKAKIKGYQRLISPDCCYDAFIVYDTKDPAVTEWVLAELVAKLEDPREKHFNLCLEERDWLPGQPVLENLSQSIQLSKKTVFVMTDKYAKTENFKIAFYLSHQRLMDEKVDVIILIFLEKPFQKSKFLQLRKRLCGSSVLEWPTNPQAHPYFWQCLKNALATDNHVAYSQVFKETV
Nature of the assay: TLR7 reporter gene assay, antagonism (gardiquimod as agonist). The text has this:
(§1) The induction of NF-κB was quantified using HEK-Blue-3, HEK-Blue-7 and HEK-Blue-8 cells as previously described by us.^8,24,51 HEK293 cells were stably transfected with human TLR3 (or human TLR7 or human TLR8), MD2, and secreted alkaline phosphatase (sAP), and were maintained in HEK-Blue™ Selection medium containing zeocin and normocin. Stable expression of secreted alkaline phosphatase (sAP) under control of NF-κB/AP-1 promoters is inducible by the TLR3 (or TLR7 or TLR8) agonists, and extracellular sAP in the supernatant is proportional to NF-κB induction. HEK-Blue cells were incubated at a density of ˜10^5 cells/ml in a volume of 80 μl/well, in 384-well, flat-bottomed, cell culture-treated microtiter plates until confluency was achieved, and subsequently graded concentrations of stimuli. sAP was assayed spectrophotometrically using an alkaline phosphatase-specific chromogen (present in HEK-detection medium as supplied by the vendor) at 620 nm.
(§2) Antagonism assays were done as described by us earlier^73 using the following agonists at a constant concentration: TLR3 Poly(I:C) (10 ng/mL); TLR7: gardiquimod (1 μg/mL); TLR8: CL075 (1 μg/mL) mixed with graded concentrations of the test compounds.
(A reporter such as luciferase makes a cellular process visible.)

Assay [3] addresses T2, TLR8 (Homo sapiens, UniProt Q9NR97).
T2 construct: expressed in transfected cells; host or cells: HEK293 (HEK-Blue-8 cells)
T2 sequence (Q9NR97 27-1041): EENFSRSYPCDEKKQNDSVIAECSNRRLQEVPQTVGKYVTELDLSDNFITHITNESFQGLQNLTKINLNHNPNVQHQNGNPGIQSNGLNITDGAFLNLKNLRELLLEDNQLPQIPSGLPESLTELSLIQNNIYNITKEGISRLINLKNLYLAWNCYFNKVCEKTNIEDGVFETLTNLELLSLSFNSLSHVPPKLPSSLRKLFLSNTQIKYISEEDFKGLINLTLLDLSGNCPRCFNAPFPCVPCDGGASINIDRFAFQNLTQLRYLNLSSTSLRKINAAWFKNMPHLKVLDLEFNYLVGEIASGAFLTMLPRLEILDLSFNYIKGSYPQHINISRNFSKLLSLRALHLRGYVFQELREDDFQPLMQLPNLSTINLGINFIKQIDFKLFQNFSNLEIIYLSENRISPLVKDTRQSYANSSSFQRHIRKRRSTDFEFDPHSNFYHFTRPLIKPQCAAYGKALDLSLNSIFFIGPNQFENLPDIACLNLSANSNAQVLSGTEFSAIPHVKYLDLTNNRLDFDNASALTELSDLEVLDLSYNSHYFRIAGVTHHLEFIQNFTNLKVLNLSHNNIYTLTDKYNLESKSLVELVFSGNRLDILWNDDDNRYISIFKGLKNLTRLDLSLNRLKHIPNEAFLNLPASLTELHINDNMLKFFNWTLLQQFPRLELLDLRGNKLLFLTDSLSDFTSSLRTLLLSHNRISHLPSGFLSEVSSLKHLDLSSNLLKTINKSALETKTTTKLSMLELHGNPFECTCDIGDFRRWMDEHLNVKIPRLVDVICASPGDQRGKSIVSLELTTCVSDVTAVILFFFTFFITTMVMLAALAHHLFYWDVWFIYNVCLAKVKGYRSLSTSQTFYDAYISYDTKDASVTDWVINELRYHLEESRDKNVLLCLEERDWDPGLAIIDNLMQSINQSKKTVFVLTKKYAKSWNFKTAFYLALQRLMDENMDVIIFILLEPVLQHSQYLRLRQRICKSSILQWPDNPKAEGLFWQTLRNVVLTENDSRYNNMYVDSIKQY
Put plainly: TLR8 reporter gene assay, antagonism (CL075 as agonist). Conditions: for IC50: agonist CL075 1 μg/mL, ND = not detected.
Excerpt: as §1, §2

The target of assay [4] is T1, TLR7. Nature of the assay: TLR7 reporter gene assay (NF-κB induction, HEK-Blue-7 cells), agonism. Conditions: Table 1; ND = not detected; read-out: TLR7 Agonism.
Excerpt: (§3) NF-κB induction: The induction of NF-κB was quantified using HEK-Blue-7 cells and HEK-Blue-8 cells as previously described by us.^8,24 HEK293 cells were stably transfected with human TLR7 (or human TLR8), MD2, and secreted alkaline phosphatase (sAP), and were maintained in HEK-Blue™ Selection medium containing zeocin and normocin. Stable expression of secreted alkaline phosphatase (sAP) under control of NF-κB/AP-1 promoters is inducible by the TLR7 (or TLR8) agonists, and extracellular sAP in the supernatant is proportional to NF-κB induction. HEK-Blue cells were incubated at a density of […] in a volume of 80 μL/well, in 384-well, flat-bottomed, cell culture-treated microtiter plates until confluency was achieved, and subsequently graded concentrations of stimuli. sAP was assayed spectrophotometrically using an alkaline phosphatase-specific chromogen (present in HEK-detection medium as supplied by the vendor) at 620 nm.
as §1

For assay [5], the target named is T2, TLR8. Nature of the assay: TLR8 reporter gene assay (NF-κB induction, HEK-Blue-8 cells), agonism.
Excerpt: as §3, §1

On to `CCN(CC)CCCC(C)Nc1ccnc2cc(Cl)ccc12` (stereo not shown) [Chloroquine, reference compound], for which the “Inhibition of TNF-α and IL-1β production (in words)” value in assay [1] was “feeble inhibitor”.
For `Nc1nc2ccccc2c2c1nc(CCCCc1nc3c(N)nc4ccccc4c3n1Cc1ccccc1)n2Cc1ccccc1` [Compound 47b, 2,2′-(butane-1,4-diyl)bis(1-benzyl-1H-imidazo[4,5-c]quinolin-4-amine)], on TLR7 [2], the “TLR7 antagonistic activity (in words)” value is reported as “potent antagonistic activity”. For the same molecule, on TLR8 [3], the “TLR8 antagonistic activity (in words)” value is “potent antagonistic activity” and the IC50 was found to be 15.6 µM.
Take `Nc1nc2ccccc2c2c1nc(CCCCCCc1nc3c(N)nc4ccccc4c3n1Cc1ccccc1)n2Cc1ccccc1` [Compound 49a, 2,2′-(hexane-1,6-diyl)bis(1-benzyl-1H-imidazo[4,5-c]quinolin-4-amine)]: at TLR7 [2], the “TLR7 antagonistic activity (in words)” value is listed as “potent antagonistic activity”. For the same molecule, on TLR8 [3], the “TLR8 antagonistic activity (in words)” value is given as “potent antagonistic activity” and the concentration for half-maximal inhibition (IC50) turned out to be 10.9 µM.
With `Nc1nc2ccccc2c2c1nc(CCCCCCCCCCc1nc3c(N)nc4ccccc4c3n1Cc1ccccc1)n2Cc1ccccc1` [Compound 49b, 2,2′-(decane-1,10-diyl)bis(1-benzyl-1H-imidazo[4,5-c]quinolin-4-amine)], the “TLR7 antagonistic activity (in words)” value on TLR7 [2] is recorded as “potent antagonistic activity”. The IC50 on TLR7 [2] (agonist gardiquimod 1 μg/mL, ND = not detected) turned out to be 17.9 µM; on TLR8 [3] it was 4.65 µM. The “TLR8 antagonistic activity (in words)” value on TLR8 [3] was “potent antagonistic activity”.
As to `CCCCc1nc2c(N)nc3ccc(NC(=O)CCCCCCCCCCC(=O)Nc4ccc5nc(N)c6nc(CCCC)n(Cc7ccc(CN)cc7)c6c5c4)cc3c2n1Cc1ccc(CN)cc1` [Compound 55c, N^1,N^12-bis(4-amino-1-(4-(aminomethyl)benzyl)-2-butyl-1H-imidazo[4,5-c]quinolin-8-yl) dodecanediamide], the EC50 at TLR7 [4] was 5.4 µM. In addition, the “TLR8-agonistic activity (in words)” value at TLR8 [5] is on record as “dual TLR7/TLR8 activity”.
